Patent US12310975B2, “Modulators of BCL6 proteolysis and associated methods of use” (Arvinas Operations, Inc., priority 2019, dated 2025)

Biological target: BCL6 (Homo sapiens (Human), UniProt P41182)
Assay: Immunofluorescence high content imaging of BCL6 degradation in T47D cells
Format: cell-based
Conditions: class symbols A-D, read-out: EC50 (nM)*
Method in brief: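 T47D cells were treated for 3 days at 37 °C with 11-point 3-fold dilutions of bifunctional degrader (final top 0.1 or 1 μM). BCL6 was detected by immunofluorescence after PFA fixation, with Hoechst and cell mask counterstains, and imaged at 10×, 4 fields/well.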

| Compound | DC50 |
| --- | --- |
| CNC(=O)COc1cc2cc(Nc3nc(N4CCC(OCCOCCOCCCCOc5ccc(-c6ccc7c(c6)CN(C6CCC(=O)NC6=O)C7=O)cc5)CC4)ncc3Cl)ccc2n(C)c1=O (stereo not shown) [compound 94, 2-((6-((5-chloro-2-(4-(2-(2-(4-(4-(2-(2,6-dioxopiperidin-3-yl)-1-oxoisoindolin-5-yl)phenoxy)butoxy)ethoxy)ethoxy)piperidin-1-yl)pyrimidin-4-yl)amino)-1-methyl-2-oxo-1,2-dihydroquinolin-3-yl)oxy)-N-methylacetamide] | > 100 nM |
| CNC(=O)COc1cc2cc(Nc3nc(N4CCC(Oc5cccc(OCCCCOCCOCCOc6ccc7c(c6)CN(C6CCC(=O)NC6=O)C7=O)c5)CC4)ncc3Cl)ccc2n(C)c1=O (stereo not shown) [compound 95, 2-((6-((5-chloro-2-(4-(3-(4-(2-(2-((2-(2,6-dioxopiperidin-3-yl)-1-oxoisoindolin-5-yl)oxy)ethoxy)ethoxy)butoxy)phenoxy)piperidin-1-yl)pyrimidin-4-yl)amino)-1-methyl-2-oxo-1,2-dihydroquinolin-3-yl)oxy)-N-methylacetamide] | > 100 nM |
| CNC(=O)COc1cc2cc(Nc3nc(N4CCC(Oc5ccc(OCCCOCCOCCOc6ccc7c(c6)CN(C6CCC(=O)NC6=O)C7=O)cc5)CC4)ncc3Cl)ccc2n(C)c1=O (stereo not shown) [compound 96, 2-((6-((5-chloro-2-(4-(4-(3-(2-(2-((2-(2,6-dioxopiperidin-3-yl)-1-oxoisoindolin-5-yl)oxy)ethoxy)ethoxy)propoxy)phenoxy)piperidin-1-yl)pyrimidin-4-yl)amino)-1-methyl-2-oxo-1,2-dihydroquinolin-3-yl)oxy)-N-methylacetamide] | > 100 nM |
| CC(=O)COc1cc2cc(Nc3nc(N4CCC(OCCOCCOCCOCCOCCOc5ccc6c(c5)CN(C5CCC(=O)NC5=O)C6=O)CC4)ncc3Cl)ccc2n(C)c1=O (stereo not shown) [compound 98, 3-(5-((14-((1-(5-chloro-4-((1-methyl-2-oxo-3-(2-oxopropoxy)-1,2-dihydroquinolin-6-yl)amino)pyrimidin-2-yl)piperidin-4-yl)oxy)-3,6,9,12-tetraoxatetradecyl)oxy)-1-oxoisoindolin-2-yl)piperidine-2,6-dione] | 10 to 50 nM |
| CNC(=O)COc1cc2cc(Nc3nc(N4CCC(N(C)[C@H]5CC[C@@H](CN6CCN(c7ccc8c(c7)CN(C7CCC(=O)NC7=O)C8=O)CC6)CC5)CC4)ncc3Cl)ccc2n(C)c1=O (stereo partly shown) [compound 102, 2-((6-((5-chloro-2-(4-(((1s,4s)-4-((4-(2-(2,6-dioxopiperidin-3-yl)-1-oxoisoindolin-5-yl)piperazin-1-yl)methyl)cyclohexyl) (methyl)amino)piperidin-1-yl)pyrimidin-4-yl)amino)-1-methyl-2-oxo-1,2-dihydroquinolin-3-yl)oxy)-N-methylacetamide] | < 10 nM |

More lines, now with the values ahead:

| DC50 | Compound |
| --- | --- |
| > 100 nM | CNC(=O)COc1cc2cc(Nc3nc(N4CCC(c5ccc(OCCCOCCOCCOc6ccc7c(c6)CN(C6CCC(=O)NC6=O)C7=O)cc5)CC4)ncc3Cl)ccc2n(C)c1=O (stereo not shown) [compound 89, 2-((6-((5-chloro-2-(4-(4-(3-(2-(2-((2-(2,6-dioxopiperidin-3-yl)-1-oxoisoindolin-5-yl)oxy)ethoxy)ethoxy)propoxy)phenyl)piperidin-1-yl)pyrimidin-4-yl)amino)-1-methyl-2-oxo-1,2-dihydroquinolin-3-yl)oxy)-N-methylacetamide] |
| > 100 nM | CNC(=O)COc1cc2cc(Nc3nc(N4CCC(c5ccccc5OCCCOCCOCCOCCOc5ccc6c(c5)CN(C5CCC(=O)NC5=O)C6=O)CC4)ncc3Cl)ccc2n(C)c1=O (stereo not shown) [compound 90, 2-((6-((5-chloro-2-(4-(2-(3-(2-(2-(2-((2-(2,6-dioxopiperidin-3-yl)-1-oxoisoindolin-5-yl)oxy)ethoxy)ethoxy)ethoxy)propoxy)phenyl)piperidin-1-yl)pyrimidin-4-yl)amino)-1-methyl-2-oxo-1,2-dihydroquinolin-3-yl)oxy)-N-methylacetamide] |
| > 100 nM | O=C1CCC(N2C(=O)c3ccc(N4CCN(CC5CCN(c6cc(Nc7ccc8c(c7)CCC(=O)N8)c(Cl)cc6[N+](=O)[O-])CC5)CC4)cc3C2=O)C(=O)N1 (stereo not shown) [compound 92, 5-(4-((1-(4-chloro-2-nitro-5-((2-oxo-1,2,3,4-tetrahydroquinolin-6-yl)amino)phenyl)piperidin-4-yl)methyl)piperazin-1-yl)-2-(2,6-dioxopiperidin-3-yl)isoindoline-1,3-dione] |
| > 100 nM | CNC(=O)COc1cc2cc(Nc3nc(N4CCC(OCCOCCOCCOCCCOc5ccccc5-c5ccc6c(c5)CN(C5CCC(=O)NC5=O)C6=O)CC4)ncc3Cl)ccc2n(C)c1=O (stereo not shown) [compound 93, 2-((6-((5-chloro-2-(4-(2-(2-(2-(3-(2-(2-(2,6-dioxopiperidin-3-yl)-1-oxoisoindolin-5-yl)phenoxy)propoxy)ethoxy)ethoxy)ethoxy)piperidin-1-yl)pyrimidin-4-yl)amino)-1-methyl-2-oxo-1,2-dihydroquinolin-3-yl)oxy)-N-methylacetamide] |
| 50 to 100 nM | CNC(=O)COc1cc2cc(Nc3nc(N4CCC(OCc5cccc(COCCOCCOCCOc6ccc7c(c6)CN(C6CCC(=O)NC6=O)C7=O)c5)CC4)ncc3Cl)ccc2n(C)c1=O (stereo not shown) [compound 97, 2-((6-((5-chloro-2-(4-((3-((2-(2-(2-((2-(2,6-dioxopiperidin-3-yl)-1-oxoisoindolin-5-yl)oxy)ethoxy)ethoxy)ethoxy)methyl)benzyl)oxy)piperidin-1-yl)pyrimidin-4-yl)amino)-1-methyl-2-oxo-1,2-dihydroquinolin-3-yl)oxy)-N-methylacetamide] |
| > 100 nM | CN(C)C(=O)COc1cc2cc(Nc3nc(N4CCC(OCCOCCOCCOCCOCCOc5ccc6c(c5)CN(C5CCC(=O)NC5=O)C6=O)CC4)ncc3Cl)ccc2n(C)c1=O (stereo not shown) [compound 99, 2-((6-((5-chloro-2-(4-((14-((2-(2,6-dioxopiperidin-3-yl)-1-oxoisoindolin-5-yl)oxy)-3,6,9,12-tetraoxatetradecyl)oxy)piperidin-1-yl)pyrimidin-4-yl)amino)-1-methyl-2-oxo-1,2-dihydroquinolin-3-yl)oxy)-N,N-dimethylacetamide] |
| > 100 nM | CNC(=O)COc1cc2cc(Nc3nc(N4CCC(OCCOCCOCCOc5cccc(CCOc6ccc7c(c6)CN(C6CCC(=O)NC6=O)C7=O)c5)CC4)ncc3Cl)ccc2n(C)c1=O (stereo not shown) [compound 100, 2-((6-((5-chloro-2-(4-(2-(2-(2-(3-(2-((2-(2,6-dioxopiperidin-3-yl)-1-oxoisoindolin-5-yl)oxy)ethyl)phenoxy)ethoxy)ethoxy)ethoxy)piperidin-1-yl)pyrimidin-4-yl)amino)-1-methyl-2-oxo-1,2-dihydroquinolin-3-yl)oxy)-N-methylacetamide] |
| < 10 nM | CNC(=O)COc1cc2cc(Nc3nc(N4CCC(N(C)[C@H]5CC[C@H](CN6CCN(c7ccc8c(c7)CN(C7CCC(=O)NC7=O)C8=O)CC6)CC5)CC4)ncc3Cl)ccc2n(C)c1=O (stereo partly shown) [compound 101, 2-((6-((5-chloro-2-(4-(((1r,4r)-4-((4-(2-(2,6-dioxopiperidin-3-yl)-1-oxoisoindolin-5-yl)piperazin-1-yl)methyl)cyclohexyl) (methyl)amino)piperidin-1-yl)pyrimidin-4-yl)amino)-1-methyl-2-oxo-1,2-dihydroquinolin-3-yl)oxy)-N-methylacetamide] |
